Results published in patent US20250275540A1, “USE OF PROTOPORPHYRINOGEN OXIDASE” (BEIJING DABEINONG BIOTECHNOLOGY CO., LTD., priority 2022, published 2025).

Tested on: transgenic soybean plants
Test: Detection of the herbicide tolerance of the transgenic soybean plants
Type: in vivo
Details: for The grade of pesticide damage/plant: 0 / The grade of pesticide damage/plant: 1 / The grade of pesticide damage/plant: 2 / The grade of pesticide damage/plant: 3: 7 DAT
[1] = genotype Control vector, 360 g ai/ha
[2] = genotype Control vector, 720 g ai/ha
[3] = genotype PPO-AP-01, 360 g ai/ha
[4] = genotype PPO-AP-01, 720 g ai/ha
[5] = genotype PPO-EC-01, 360 g ai/ha
[6] = genotype PPO-EC-01, 720 g ai/ha

Question: What does the source list for `CCOc1cc(Oc2ccc(C(F)(F)F)cc2Cl)ccc1[N+](=O)[O-]` [oxyfluorfen, 2-chloro-1-(3-ethoxy-4-nitrophenoxy)-4-trifluoromethylbenzene]?
Answer: The grade of pesticide damage/plant: 0 (genotype CK, 360 g ai/ha): 0 plant; The grade of pesticide damage/plant: 1 (genotype CK, 360 g ai/ha): 0 plant; The grade of pesticide damage/plant: 2 (genotype CK, 360 g ai/ha): 0 plant; The grade of pesticide damage/plant: 3 (genotype CK, 360 g ai/ha): 16 plant; The grade of pesticide damage/plant: 0 (genotype CK, 720 g ai/ha): 0 plant; The grade of pesticide damage/plant: 1 (genotype CK, 720 g ai/ha): 0 plant; The grade of pesticide damage/plant: 2 (genotype CK, 720 g ai/ha): 0 plant; The grade of pesticide damage/plant: 3 (genotype CK, 720 g ai/ha): 16 plant; The grade of pesticide damage/plant: 0 [1]: 0 plant; The grade of pesticide damage/plant: 1 [1]: 0 plant; The grade of pesticide damage/plant: 2 [1]: 0 plant; The grade of pesticide damage/plant: 3 [1]: 16 plant; The grade of pesticide damage/plant: 0 [2]: 0 plant; The grade of pesticide damage/plant: 1 [2]: 0 plant; The grade of pesticide damage/plant: 2 [2]: 0 plant; The grade of pesticide damage/plant: 3 [2]: 16 plant; The grade of pesticide damage/plant: 0 [3]: 0 plant; The grade of pesticide damage/plant: 1 [3]: 0 plant; The grade of pesticide damage/plant: 2 [3]: 8 plant; The grade of pesticide damage/plant: 3 [3]: 8 plant; The grade of pesticide damage/plant: 0 [4]: 0 plant; The grade of pesticide damage/plant: 1 [4]: 0 plant; The grade of pesticide damage/plant: 2 [4]: 0 plant; The grade of pesticide damage/plant: 3 [4]: 16 plant; tolerance to the herbicide (in words) (genotype PPO-AP-01, four-fold field concentration): no tolerance; share of the plants that exhibited no tolerance (genotype PPO-AP-01, two-fold field concentration): 50%; The grade of pesticide damage/plant: 0 [5]: 16 plant; The grade of pesticide damage/plant: 1 [5]: 0 plant; The grade of pesticide damage/plant: 2 [5]: 0 plant; The grade of pesticide damage/plant: 3 [5]: 0 plant; The grade of pesticide damage/plant: 0 [6]: 13 plant; The grade of pesticide damage/plant: 1 [6]: 3 plant; The grade of pesticide damage/plant: 2 [6]: 0 plant; The grade of pesticide damage/plant: 3 [6]: 0 plant; The grade of pesticide damage/plant: 0 (genotype PPOA-01, 360 g ai/ha): 16 plant; The grade of pesticide damage/plant: 1 (genotype PPOA-01, 360 g ai/ha): 0 plant; The grade of pesticide damage/plant: 2 (genotype PPOA-01, 360 g ai/ha): 0 plant; The grade of pesticide damage/plant: 3 (genotype PPOA-01, 360 g ai/ha): 0 plant; The grade of pesticide damage/plant: 0 (genotype PPOA-01, 720 g ai/ha): 15 plant; The grade of pesticide damage/plant: 1 (genotype PPOA-01, 720 g ai/ha): 1 plant; The grade of pesticide damage/plant: 2 (genotype PPOA-01, 720 g ai/ha): 0 plant; The grade of pesticide damage/plant: 3 (genotype PPOA-01, 720 g ai/ha): 0 plant; The grade of pesticide damage/plant: 0 (genotype PPOB-01, 360 g ai/ha): 16 plant; The grade of pesticide damage/plant: 1 (genotype PPOB-01, 360 g ai/ha): 0 plant; The grade of pesticide damage/plant: 2 (genotype PPOB-01, 360 g ai/ha): 0 plant; The grade of pesticide damage/plant: 3 (genotype PPOB-01, 360 g ai/ha): 0 plant; The grade of pesticide damage/plant: 0 (genotype PPOB-01, 720 g ai/ha): 16 plant; The grade of pesticide damage/plant: 1 (genotype PPOB-01, 720 g ai/ha): 0 plant; The grade of pesticide damage/plant: 2 (genotype PPOB-01, 720 g ai/ha): 0 plant; The grade of pesticide damage/plant: 3 (genotype PPOB-01, 720 g ai/ha): 0 plant; The grade of pesticide damage/plant: 0 (genotype PPOC-01, 360 g ai/ha): 16 plant; The grade of pesticide damage/plant: 1 (genotype PPOC-01, 360 g ai/ha): 0 plant; The grade of pesticide damage/plant: 2 (genotype PPOC-01, 360 g ai/ha): 0 plant; The grade of pesticide damage/plant: 3 (genotype PPOC-01, 360 g ai/ha): 0 plant; The grade of pesticide damage/plant: 0 (genotype PPOC-01, 720 g ai/ha): 16 plant; The grade of pesticide damage/plant: 1 (genotype PPOC-01, 720 g ai/ha): 0 plant; The grade of pesticide damage/plant: 2 (genotype PPOC-01, 720 g ai/ha): 0 plant; The grade of pesticide damage/plant: 3 (genotype PPOC-01, 720 g ai/ha): 0 plant; The grade of pesticide damage/plant: 0 (genotype PPOD-01, 360 g ai/ha): 16 plant; The grade of pesticide damage/plant: 1 (genotype PPOD-01, 360 g ai/ha): 0 plant; The grade of pesticide damage/plant: 2 (genotype PPOD-01, 360 g ai/ha): 0 plant; The grade of pesticide damage/plant: 3 (genotype PPOD-01, 360 g ai/ha): 0 plant; The grade of pesticide damage/plant: 0 (genotype PPOD-01, 720 g ai/ha): 16 plant; The grade of pesticide damage/plant: 1 (genotype PPOD-01, 720 g ai/ha): 0 plant; The grade of pesticide damage/plant: 2 (genotype PPOD-01, 720 g ai/ha): 0 plant; The grade of pesticide damage/plant: 3 (genotype PPOD-01, 720 g ai/ha): 0 plant; The grade of pesticide damage/plant: 0 (genotype PPOE-01, 360 g ai/ha): 16 plant; The grade of pesticide damage/plant: 1 (genotype PPOE-01, 360 g ai/ha): 0 plant; The grade of pesticide damage/plant: 2 (genotype PPOE-01, 360 g ai/ha): 0 plant; The grade of pesticide damage/plant: 3 (genotype PPOE-01, 360 g ai/ha): 0 plant; The grade of pesticide damage/plant: 0 (genotype PPOE-01, 720 g ai/ha): 14 plant; The grade of pesticide damage/plant: 1 (genotype PPOE-01, 720 g ai/ha): 2 plant; The grade of pesticide damage/plant: 2 (genotype PPOE-01, 720 g ai/ha): 0 plant; The grade of pesticide damage/plant: 3 (genotype PPOE-01, 720 g ai/ha): 0 plant; The grade of pesticide damage/plant: 0 (genotype PPOF-01, 360 g ai/ha): 16 plant; The grade of pesticide damage/plant: 1 (genotype PPOF-01, 360 g ai/ha): 0 plant; The grade of pesticide damage/plant: 2 (genotype PPOF-01, 360 g ai/ha): 0 plant; The grade of pesticide damage/plant: 3 (genotype PPOF-01, 360 g ai/ha): 0 plant; The grade of pesticide damage/plant: 0 (genotype PPOF-01, 720 g ai/ha): 16 plant; The grade of pesticide damage/plant: 1 (genotype PPOF-01, 720 g ai/ha): 0 plant; The grade of pesticide damage/plant: 2 (genotype PPOF-01, 720 g ai/ha): 0 plant; The grade of pesticide damage/plant: 3 (genotype PPOF-01, 720 g ai/ha): 0 plant; tolerance to the herbicide (in words) (genotypes PPOA-01 to PPOF-01 and PPO-EC-01, four-fold field concentration): high-resistant tolerance; tolerance to the herbicide (in words) (genotypes PPOA-01 to PPOF-01 and PPO-EC-01, two-fold field concentration): high-resistant tolerance
